Laboratory results from the supplement of paper PMC10307832.

Key:
Assay in all cases: relative viability (nuclei count vs DMSO), 5 days (fraction); higher = more cells survive
XMD13-2 + Navitoclax = compound: C1CC1C(=O)NC2=NNC3=C2C=CC(=C3)C4=CC(=CC=C4)C(=O)NC5CC5 [XMD13-2] + CC1(C)CCC(c2ccc(Cl)cc2)=C(CN2CCN(c3ccc(C(=O)NS(=O)(=O)c4ccc(N[C@H](CCN5CCOCC5)CSc5ccccc5)c(S(=O)(=O)C(F)(F)F)c4)cc3)CC2)C1 [Navitoclax] (partner 0.5 µM)
Outline: (§1)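 Values are medians from duplicate plates. Each reflects relative viability, defined as the nuclei count of treated wells over that of vehicle wells. Lung cancer cell lines in 1536-well plates were pin-tool dosed one day after seeding with one drug alone or with a fixed anchor-drug dose plus five library-drug doses (not always all listed) in √10 steps, then fixed, stained and imaged at 4× after 5 days.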

ALW-II-49-7 + Navitoclax = compound: Cc1ccc(C(=O)Nc2cccc(C(F)(F)F)c2)cc1Nc1cncc(C(N)=O)c1 [ALW-II-49-7] + CC1(C)CCC(c2ccc(Cl)cc2)=C(CN2CCN(c3ccc(C(=O)NS(=O)(=O)c4ccc(N[C@H](CCN5CCOCC5)CSc5ccccc5)c(S(=O)(=O)C(F)(F)F)c4)cc3)CC2)C1 [Navitoclax] (partner 0.5 µM)
Outline: as §1

ALW-II-49-7 + Linsitinib = compound: Cc1ccc(C(=O)Nc2cccc(C(F)(F)F)c2)cc1Nc1cncc(C(N)=O)c1 [ALW-II-49-7] + C[C@]1(O)C[C@@H](c2nc(-c3ccc4ccc(-c5ccccc5)nc4c3)c3c(N)nccn32)C1 [Linsitinib] (partner 1 µM)
Outline: as §1

ALW-II-49-7 + Phenformin = compound: Cc1ccc(C(=O)Nc2cccc(C(F)(F)F)c2)cc1Nc1cncc(C(N)=O)c1 [ALW-II-49-7] + N=C(N)NC(=N)NCCc1ccccc1 [Phenformin] (partner 250 µM)
Outline: as §1

Cell Line	relative viability (XMD13-2 + Navitoclax; first compound 0.05 µM)	relative viability (XMD13-2 + Navitoclax; first compound 0.1581 µM)	relative viability (XMD13-2 + Navitoclax; first compound 0.5 µM)	relative viability (XMD13-2 + Navitoclax; first compound 1.581 µM)	relative viability (XMD13-2 + Navitoclax; first compound 5 µM)	relative viability (ALW-II-49-7 + Navitoclax; first compound 0.08 µM)	relative viability (ALW-II-49-7 + Navitoclax; first compound 0.253 µM)	relative viability (ALW-II-49-7 + Navitoclax; first compound 0.8 µM)	relative viability (ALW-II-49-7 + Navitoclax; first compound 2.53 µM)	relative viability (ALW-II-49-7 + Navitoclax; first compound 8 µM)	relative viability (ALW-II-49-7 + Linsitinib; first compound 0.08 µM)	relative viability (ALW-II-49-7 + Linsitinib; first compound 0.253 µM)	relative viability (ALW-II-49-7 + Linsitinib; first compound 0.8 µM)	relative viability (ALW-II-49-7 + Linsitinib; first compound 2.53 µM)	relative viability (ALW-II-49-7 + Linsitinib; first compound 8 µM)	relative viability (ALW-II-49-7 + Phenformin; first compound 0.08 µM)	relative viability (ALW-II-49-7 + Phenformin; first compound 0.253 µM)	relative viability (ALW-II-49-7 + Phenformin; first compound 0.8 µM)	relative viability (ALW-II-49-7 + Phenformin; first compound 2.53 µM)	relative viability (ALW-II-49-7 + Phenformin; first compound 8 µM)
NCI-H1703	1.59	1.19	1.24	0.889	1.16	1.02	1.08	0.964	0.406	0.291	0.564	0.78	0.567	0.277	0.224					
NCI-H1650	1.07	1.05	0.993	1.33	1.52	1.05	1.06	1.32	1.34	1.21						0.447	0.465	0.427	0.492	0.476
NCI-H522																0.678	0.667	0.687	0.576	0.732
LCLC-103H											0.994	1.15	1.16	1.15	1.05	0.306	0.343	0.281	0.288	0.335
NCI-H1563											1.18	1.18	1.31	1.34	1.22	0.65	0.71	0.67	0.683	0.606
NCI-H358											0.801	0.661	0.816	0.725	0.742	0.324	0.297	0.356	0.407	0.312
SW 900																0.397	0.542	0.549	0.703	0.534
NCI-H1623																0.566	0.504	0.574	0.565	0.564
IA-LM	0.821	0.867	0.724	0.769	0.457	0.84	0.551	0.689	0.213	0.0967	0.627	0.342	0.378	0.449	0.135					
NCI-H2170	0.761	0.577	0.577	0.569	0.475	0.701	0.568	0.569	0.655	0.592						0.411	0.435	0.432	0.387	0.346
EBC-1	0.563	0.375	0.404	0.232	0.176	0.403	0.377	0.348	0.321	0.277	0.83	0.784	0.358	0.856	0.391					
NCI-H1299	1.04	1.03	1.06	1.03	1.09	1.03	1.08	1.05	1.07	0.968	1.02	1.05	0.696	0.721	0.423					
